The record followed here is patent US8552253B2, “Screening of drug for attention deficit hyperactive disorder by using GIT1 knock-out mice as a novel ADHD mouse model” (Korea Advanced Institute of Science and Technology, priority 2011, dated 2013).

Molecules are shown by their SMILES.

Holding throughout (type): in vivo
In assay [1] the test system is GIT1 knock-out mouse. The assay is described as follows: EEG analysis of theta section waveform in the frontal lobe of GIT1 knock-out mouse. To be noted: after administering amphetamine, compared to a control having saline, FIG. 7C. As for the experimental part: A process of assaying an abnormal theta section waveform and a power spectrum density in the frontal lobe using the GIT1 knock-out mouse according to the present invention was executed after administering ketamine to a mouse through peritoneal injection at a dose of 150 mg/kg to anesthetize the mouse and fixing the head of the mouse to a stereotaxic instrument. EEG electrodes were inserted into both the right frontal lobe and the left frontal lobe. More particularly, a correct fixing position was set by calculating a correct coordinate having the front side of 2.8 mm and each lateral side of 0.8 mm with reference to the bregma, via the stereotaxic instrument. A grounding electrode was inserted into the occipital lobe. After inserting the electrodes and 1 week recovery period, the mouse was placed in an EEG chamber to measure a brain wave for 1 hour. EEG signals were amplified using a Grass model 7H polygraph (Grass Technologies) and digitalized at a sampling frequency of 2000 Hz using DIGIDATA 1320A (Molecular Devices), followed by acquisition of data using pClamp8.0 program (Axon Instruments) and analysis thereof.

Another assay has as its system normal mouse (wild type). The assay is described as follows: Open field test of normal mouse (control). To be noted: peritoneal injection just before test, one time, amphetamine 4 mg/kg/day, methylphenidate 2 mg/kg/day, 60 minutes. As for the experimental part: (§1) In order to observe hyperactivity of mice using the GIT1 knock-out mice of the present invention, an open field test was executed in a novel environment. A GIT1 knock-out mouse and a normal mouse (wild type) as a control, each mouse being aged 2 to 5 months, were prepared. An open space was prepared using a white box which is never exposed to the mice and has a dimension of 40-40-40 cm (width-length-height). After placing each mouse in the center of the open space and video shooting a distance of the mouse for 60 minutes, results thereof including, for example, a total distance, an average movement speed, a central space invasion rate, etc., were assayed through an activity analysis program. For analysis of behavior in the open space, amphetamine (4 mg/kg/day, one time) and methylphenidate (2 mg/kg/day, one time) used as ADHD protection drugs were administered through peritoneal injection just before placing the mouse therein, followed by immediately placing the mouse in the center of the open space.

Assay [2] deals with GIT1 knock-out mouse. The assay is described as follows: Open field test of GIT1 knock-out mouse. To be noted: peritoneal injection just before test, one time, amphetamine 4 mg/kg/day, methylphenidate 2 mg/kg/day, 60 minutes, FIGS. 3B and 3C. On the procedure: as §1
For assay [3], the system named is GIT1 knock-out mouse. The assay is described as follows: Novel object recognition test of GIT1 knock-out mouse. As to conditions: peritoneal injection 4 mg/kg/day, 20 minutes before the sample phase, versus saline, FIG. 6C. As for the experimental part:
A novel object recognition test for assessment of object recognition and memory performance using the GIT1 knock-out mouse was performed in the same open space box as used in the open field test. The novel object recognition test included a sample phase and a test phase. During the sample phase, the mouse was allowed to detect the same two objects placed in an open space box for 10 minutes and, by video shooting the sample phase, times of observing both the objects by the mouse were recorded. As a result, it was found in FIG. 6A that a difference in object detection time between the normal mouse and the GIT1 knock-out mouse is not statistically significant. Further, one of the same two objects, for example, was replaced by a novel object not exposed to the mouse and, after 24 hours, a test period was proceeded. Such a test period was 10 minutes and a time of observing two objects by the mouse was measured during the test period. In this regard, if the nose end of the mouse contacts the object or the mouse heads for the object within 2 cm before the same, this was defined as the observation. For observing recovery of the object recognition and/or memory performance, the present inventive mouse was administered with amphetamine or saline through peritoneal injection at a dose of 4 mg/kg/day and placed in an open space box, 20 minutes before the sample phase.

Take `CC(N)Cc1ccccc1` (stereo not drawn) [amphetamine]: the “abnormal theta waveform in the frontal lobe (EEG)” value with GIT1 knock-out mouse [1] is reported as “favorably recovered”. Besides, the “movement distance of the normal mouse in open space” value in the assay on normal mouse (wild type) is reported as “considerably long distance”. The “movement distance of the GIT1 knock-out mouse in open space (hyperactivity)” value in the assay with GIT1 knock-out mouse [2] is recorded as “significant recovery”. In addition, the “object recognition ability (novel object recognition)” value with GIT1 knock-out mouse [3] is “can be recovered”.
As to `COC(=O)C(c1ccccc1)C1CCCCN1` (stereo not drawn) [methylphenidate], the “movement distance of the normal mouse in open space” value in the assay on normal mouse (wild type) is “considerably long distance”. Besides, the “movement distance of the GIT1 knock-out mouse in open space (hyperactivity)” value in the assay with GIT1 knock-out mouse [2] is “significant recovery”.
